The source of these data is patent US7326700B2, “Cyclohexenyl phenyl carboxamides tocolytic oxytocin receptor antagonists” (Wyeth, priority 2001, dated 2008).

Data set [1] has as its target T1, human vasopressin V2 receptor subtype (Homo sapiens, UniProt P30518).
T1 construct: host or cells: CHO cells, stably transfected (pZeoSV vector)
The experiment in a line: Vasopressin binding in CHO cell membranes expressing human vasopressin V2 subtype receptors ([3H]arginine vasopressin radioligand binding). The settings on record: for IC50: value in parentheses. The source says:
Chinese Hamster Ovary (CHO) cells stably transfected with the human V2 subtype receptors were obtained from M. Thibonnier, Case Western Reserve University School of Medicine, Cleveland, Ohio.
CHO cells transfected with the human vasopressin V2 subtype receptors obtained from M. Thibonnier (pZeoSV vector) are allowed to grow to confluency (approx. >90%) in T-150 flasks under sterile conditions, in a cell culture medium consisting of F-12 Nutrient Mixture (HAM) with L-glutamine (Gibco Cat. #11765-054) containing 15 mM HEPES (Gibco Cat. #15630-080), 1% antibiotic/antimycotic (add 5 mL 100×, Gibco Cat. #15240-062 per 500 mL F-12), 250 μg/mL Zeocin (add 1.25 mL of 100 mg/mL Invitrogen R-250-01 per 500 mL F-12) and 10% Fetal Bovine Serum (Qualified, heat inactivated, Gibco Cat. #16140-063). The medium is removed by aspiration and the cells washed with 10 mL of Hank's Balanced Salt solution (Gibco Cat. #14175-095). The salt solution is removed by aspiration and the cells trypsinized with 5 mL of trypsin-EDTA (0.05% trypsin, 0.53 mM EDTA-4Na, Gibco Cat. #25300-070) for 1 min. The trypsin is removed by aspiration and the cells dislodged by tapping. Cell Culture medium (e.g. 30 mL for 1:30 split) is immediately added and mixed well to inactivate trypsin. 1 mL of detached cells is added to new culture flasks containing fresh Cell Culture medium (e.g. into 25 mL per T-150 flask), and mixed gently. The cells are incubated at 37° C. in 5% CO2. The medium is changed at 3 to 4 day interval (or as appropriate). The cells grow to confluency (approx. >75%-95%) within 7-8 days. All steps are done under sterile conditions.
The cells are washed twice gently with Hank's Balanced Salt solution (e.g. use 10 mL per T-150 flask). The excess solution is removed and the cells bathed for 15-30 min. in an enzyme-free Cell Dissociation Buffer (e.g. use 8 mL Hank's Based, Gibco Cat. #13150-016 per T-150 flask) until cells are loosened. The contents are transferred to centrifuge tubes (50 mL) kept in an ice bath. All subsequent steps are done at 4° C. The tubes are centrifuged at 300×g for 15 min (1380 rpm on SORVAL, Model RT6000D, using the rotor for 50 mL tubes). The supernatant is discarded and the cells suspended in homogeneizing buffer(10 mM Tris-HCl containing 0.25 M sucrose and 1 mM EDTA, pH 7.4) ensuring that the volume of the buffer is about ten times the volume of the cell pellet. The cells are pooled into a centrifuge tube (50 mL) and homogenized with Polytron at setting 6 for 10 sec. The homogenate is transferred into a Potter-Elvjehm homogeneizer and homogenized with 3 strokes. The homogenate is centrifuged at 1500×g for 60 min at 4° C. (3100 rpm using SORVAL, model RT6000D, using the rotor for 50 mL tubes). The pellet is discarded. The supernatant is centrifuged at 100,000×g for 60 min. at 4° C. (Beckman L8-80M ultracentrifuge; spin at 37,500 rpm with rotor type 70 Ti for 50 mL tubes; 38,000 rpm with type 80 Ti for 15 mL tubes; or 35,800 rpm with rotor type 45Ti). The supernantant is discarded and the pellet suspended in 3 to 4 mL of Tris buffer (50 mM TRIS-HCl, pH 7.4). The protein content is estimated by the Bradford or Lowry method. The volume of the membrane suspension is adjusted with the membrane buffer (50 mM Tris-HCl containing 0.1% BSA and 0.1 mM PMSF) to give 3.0 mg/mL (or as appropriate) of protein. The membranes are aliquoted and stored at −70° C.
In wells of a 96-well format microtiter plate, is added 90, 110 or 130 μL (to make up a final volume of 200 μL) of assay buffer containing 50 mM of Tris-HCl (pH 7.4), […], 1 mg % aprotinin, 1 mg % leupeptin, 2 mg % 1,10-phenanthroline, 10 mg % trypsin inhibitor, and 0.1 mM PMSF. The inhibitors are added on the day of the experiment. The components are mixed at room temperature, and then kept in ice bath following adjustment of the pH to 7.4. […]

Some results are limits rather than exact numbers.

The IC50 is the concentration needed to halve the response being measured. One may read the melting point as the temperature of the solid-liquid transition. The inhibition is the share of the control response that was lost under treatment. Higher therefore signals a strong effect.

`COc1cc(C2=CCCCC2)c(Cl)cc1C(=O)N1Cc2ccc(C(=O)N3CCC[C@H]3CN3CCCC3)n2Cc2ccccc21` [Example 1, 4-Chloro-5-cyclohex-1-en-1-yl-2-[(3-{[(2S)-2-(pyrrolidin-1-ylmethyl)pyrrolidin-1-yl]carbonyl}-5H-pyrrolo [2,1-c][1,4]benzodiazepin-10(11H)-yl)carbonyl]phenyl methyl ether] had a melting point of 109 to 121 °C. Also, the IC50 in data set [1] was more than 3000 nM.

With `CC1=C(c2ccc(C(=O)N3Cc4ccc(C(=O)N5CCN(C)CC5)n4Cc4ccccc43)cc2C)CCC[C@H]1O` [Example 11, [4-((3R)-3-Hydroxy-2-methyl-cyclohex-1-en-1-yl)-3-methyl-phenyl]-[3-(4-methyl-piperazine-1-carbonyl)-10,11-dihydro-5H-pyrrolo [2,1-c][1,4]benzodiazepin-10-yl]-methanone], the melting point lay within 102 to 153 °C. This molecule also returned an inhibition at 0.1 µM in data set [1] (100 nM) of 14%.

As for `C=CCN1CCN(C(=O)c2ccc3n2Cc2ccccc2N(C(=O)c2ccc(C4=CCCCC4)c(C)c2)C3)CC1` [Example 24, (4-Allyl-1-piperazinyl){10-[4-(1-cyclohex-1-en-1-yl)-3-methylbenzoyl]-10,11-dihydro-5H-pyrrolo[2,1-c][1,4]benzodiazepin-3-yl}methanone], in data set [1] (100 nM), the “V2 % inhibition @ 100 nM” value stood at 12%.

As for `Cc1cc(C(=O)N2Cc3ccc(C(=O)N4CCN(C(C)C)CC4)n3Cc3ccccc32)ccc1C1=CCCCC1` [Example 25, {10-[4-(1-Cyclohex-1-en-1-yl)-3-methylbenzoyl]-1 0,11-dihydro-5H-pyrrolo[2,1-c][1,4]benzodiazepin-3-yl}(4-isopropyl-1-piperazinyl)methanone], the “V2 % inhibition @ 100 nM” value in data set [1] (100 nM) worked out at 10%.

In the case of `Cc1cc(C(=O)N2Cc3ccc(C(=O)N4CCC[C@H]4CN4CCCC4)n3Cc3ccccc32)ccc1C1=CCCCC1` [Example 26, {10-[4-(1-Cyclohex-1-en-1-yl)-3-methylbenzoyl]-10,11-dihydro-5H-pyrrolo[2,1-c][1,4]benzodiazepin-3-yl}[(2S)-2-(1-pyrrolidinylmethyl)pyrrolidinyl]methanone], the “V2 % inhibition @ 100 nM” value in data set [1] (100 nM) turned out to be 9%.

For the molecule `Cc1cc(C(=O)N2Cc3ccc(C(=O)N4CC[C@@H](N(C)C)C4)n3Cc3ccccc32)ccc1C1=CCCCC1` [Example 27, {10-[4-(1-Cyclohex-1-en-1-yl)-3-methylbenzoyl]-10,11-dihydro-5H-pyrrolo[2,1-c][1,4]benzodiazepin-3-yl}[(3R)-3-(dimethylamino)pyrrolidinyl]methanone], the “V2 % inhibition @ 100 nM” value in data set [1] (100 nM) was 10%.

With “{10-[4-(1-Cyclohexen-1-yl)-3-methylbenzoyl]-10,11-dihydro-5H-pyrrolo[2,1-c][1,4]benzodiazepin-3-yl}(4-methyl-piperazin-1-yl)methanone [Example 12]”, the IC50 in data set [1] was more than 1000 nM.
